Experimental data as given in patent US10035778B2, “Meta-azacyclic amino benzoic acid derivatives as pan integrin antagonists” (Saint Louis University, priority 2015, dated 2018).

Tests used:
Format in all cases: binding
[1] = molecular target: Recombinant human integrin αvβ8 (Homo sapiens (Human), UniProt P06756+P26012); experiment: Solid Phase Receptor Assay (SPRA) for αvβ8 function; conditions: LAP-coated plate
Method: 6. Solid Phase Receptor Assay (SPRA) for αvβ8 Function
Recombinant human LAP protein (R&D Systems, Inc, 246-LP) diluted to 0.5 μg/mL in TBS+ buffer (25 mM Tris pH 7.4, 137 mM NaCl, 2.7 mM KCl, 1 mM CaCl2, 1 mM MgCl2, 1 mM MnCl2) was added to wells (50 μl/well) of a 96-well half-well transparent microtiter plate (Greiner 675061), and incubated overnight at 4° C. Wells were washed 3 times with 150 μL TBS+ and 150 μL of blocking buffer (TBS+ with 1% bovine serum albumin, Sigma A7906) were added. The plate was incubated for 1 hr at 37° C. and then washed 3× with TBS+. Recombinant human integrin αvβ8 (R&D Systems, 4135-AV) was diluted to 0.1 μg/mL in TBS+/0.1% bovine serum albumin. Compounds were diluted 1:100 into the integrin solution and 50 μL added to empty wells of the washed LAP-coated plate according to a standard template with each sample repeated in triplicate. After incubation for two hours at room temperature, the plate was washed 3× with 150 μL of TBS+. To each well, 50 μL of biotinylated anti-αv antibody (R&D Systems, BAF1219) at 1 μg/mL in TBS+/0.1% BSA were added and the plate was covered and incubated for 1 hr at room temperature. After washing the plate 3× with 150 μL of TBS+ buffer, 50 μL of streptavidin-conjugated horseradish peroxidase (R&D Systems, DY998) diluted in TBS+ blocking buffer were added to the wells and the plate incubated for 20 min at room temperature. The plate was washed 3× with TBS+ followed by 50 μL of TMB substrate (Sigma T4444) added to each well and the plate incubated for 20 min at room temperature. Plates were read by colorimetric detection at 650 nm wavelength using a Tecan Safire II plate reader. Concentration-response curves were constructed by non-linear regression (best fit) analysis, and IC50 values were calculated for each compound.

[2] = molecular target: Recombinant human integrin αvβ1 (Homo sapiens (Human), UniProt P05556+P06756); experiment: Solid Phase Receptor Assay (SPRA) for αvβ1 function; conditions: fibronectin-coated plate
Recombinant human integrin αvβ1, sequence (P06756 31-992): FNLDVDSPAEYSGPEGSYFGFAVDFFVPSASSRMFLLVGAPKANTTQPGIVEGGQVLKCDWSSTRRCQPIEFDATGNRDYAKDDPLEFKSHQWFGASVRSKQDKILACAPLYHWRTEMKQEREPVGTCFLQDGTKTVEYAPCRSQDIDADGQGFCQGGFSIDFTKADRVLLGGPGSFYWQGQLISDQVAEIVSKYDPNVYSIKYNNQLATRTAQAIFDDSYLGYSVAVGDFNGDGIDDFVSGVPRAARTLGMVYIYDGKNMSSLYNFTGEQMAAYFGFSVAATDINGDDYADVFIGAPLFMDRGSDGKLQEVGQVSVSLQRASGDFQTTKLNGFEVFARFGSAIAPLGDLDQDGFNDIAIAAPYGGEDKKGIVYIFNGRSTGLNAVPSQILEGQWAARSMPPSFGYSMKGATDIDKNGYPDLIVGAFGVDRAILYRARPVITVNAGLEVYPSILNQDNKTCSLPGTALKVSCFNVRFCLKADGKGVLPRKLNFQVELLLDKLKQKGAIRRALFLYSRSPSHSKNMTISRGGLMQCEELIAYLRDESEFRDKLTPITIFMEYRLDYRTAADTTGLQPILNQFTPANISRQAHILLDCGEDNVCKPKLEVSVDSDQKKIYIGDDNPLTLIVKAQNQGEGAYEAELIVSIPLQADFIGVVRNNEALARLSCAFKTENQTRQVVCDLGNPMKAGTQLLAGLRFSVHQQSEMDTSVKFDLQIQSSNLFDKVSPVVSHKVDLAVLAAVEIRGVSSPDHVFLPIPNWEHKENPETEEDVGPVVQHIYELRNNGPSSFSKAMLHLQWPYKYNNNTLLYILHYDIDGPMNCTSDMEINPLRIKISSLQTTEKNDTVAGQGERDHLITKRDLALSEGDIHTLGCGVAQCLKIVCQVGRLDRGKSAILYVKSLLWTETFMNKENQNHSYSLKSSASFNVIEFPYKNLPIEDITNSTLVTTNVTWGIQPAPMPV
Recombinant human integrin αvβ1, sequence (P05556 21-728): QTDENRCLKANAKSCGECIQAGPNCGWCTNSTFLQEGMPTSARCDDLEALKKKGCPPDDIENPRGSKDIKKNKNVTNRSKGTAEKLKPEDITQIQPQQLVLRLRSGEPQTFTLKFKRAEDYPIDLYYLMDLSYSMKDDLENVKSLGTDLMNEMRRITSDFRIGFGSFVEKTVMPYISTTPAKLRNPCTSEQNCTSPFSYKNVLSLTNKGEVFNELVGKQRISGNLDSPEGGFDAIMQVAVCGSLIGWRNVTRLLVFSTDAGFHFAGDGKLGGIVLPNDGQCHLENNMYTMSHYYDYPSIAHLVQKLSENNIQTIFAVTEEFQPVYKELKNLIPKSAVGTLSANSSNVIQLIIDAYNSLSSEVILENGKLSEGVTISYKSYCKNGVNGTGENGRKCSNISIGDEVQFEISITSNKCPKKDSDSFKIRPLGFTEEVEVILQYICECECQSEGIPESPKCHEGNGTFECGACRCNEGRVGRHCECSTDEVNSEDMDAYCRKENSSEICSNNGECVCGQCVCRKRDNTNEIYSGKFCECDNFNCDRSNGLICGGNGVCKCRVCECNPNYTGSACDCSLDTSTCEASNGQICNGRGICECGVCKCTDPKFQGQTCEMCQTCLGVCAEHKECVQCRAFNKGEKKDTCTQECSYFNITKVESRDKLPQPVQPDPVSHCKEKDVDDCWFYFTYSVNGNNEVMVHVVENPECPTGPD
Method: 2. Solid Phase Receptor Assay (SPRA) for αvβ1 Function
Purified human fibronectin (R&D Systems, 1918-FN) diluted to 5 μg/mL in TBS+ buffer (25 mM Tris pH 7.4, 137 mM NaCl, 2.7 mM KCl, 1 mM CaCl2, 1 mM MgCl2, 1 mM MnCl2) was added to wells (50 μL/well) of a 96-well half-well transparent microtiter plate (Greiner 675061) and incubated overnight at 4° C. Wells were washed 3 times with 150 μL TBS+ and 150 μL of blocking buffer (TBS+ with 1% bovine serum albumin, Sigma A7906) were added. The plate was incubated for 1 hr at 37° C. and then washed 3× with TBS+ buffer. Recombinant human integrin αvβ1 (R&D Systems. 6579-AV) was diluted to 2.0 μg/mL in TBS+/0.1% bovine serum albumin. Compounds were diluted 1:100 into the integrin solution and 50 μL added to empty wells of the washed fibronectin-coated plate according to a standard template with each sample repeated in triplicate. After incubation for two hours at room temperature, the plate was washed 3× with 150 μL of TBS+ buffer. To each well, 50 μL of biotinylated anti-αv antibody (R&D Systems, BAF1219) at 1 μg/mL in TBS+/0.1% BSA were added and the plate covered and incubated for 1 hr at room temperature. After washing the plate 3× with 150 μL of TBS+ buffer, 50 μL of streptavidin-conjugated horseradish peroxidase (R&D Systems, DY998) diluted in TBS+ blocking buffer were added to the wells and the plate incubated for 20 min at room temperature. The plate was washed 3× with TBS+ buffer followed by 50 μL of TMB substrate (Sigma, T4444) added to each well and the plate incubated for 20 min at room temperature. Plates were read by colorimetric detection at 650 nm wavelength using a Tecan Safire II plate reader. Concentration-response curves were constructed by non-linear regression (best fit) analysis, and IC50 values were calculated for each compound.

[3] = molecular target: Recombinant human integrin αvβ6 (Homo sapiens (Human), UniProt P06756+P18564); experiment: Solid Phase Receptor Assay (SPRA) for αvβ6 function; conditions: LAP-coated plate
Recombinant human integrin αvβ6, sequence (P06756 31-992): as the sequence (P06756 31-992) above
Recombinant human integrin αvβ6, sequence (P18564 22-707): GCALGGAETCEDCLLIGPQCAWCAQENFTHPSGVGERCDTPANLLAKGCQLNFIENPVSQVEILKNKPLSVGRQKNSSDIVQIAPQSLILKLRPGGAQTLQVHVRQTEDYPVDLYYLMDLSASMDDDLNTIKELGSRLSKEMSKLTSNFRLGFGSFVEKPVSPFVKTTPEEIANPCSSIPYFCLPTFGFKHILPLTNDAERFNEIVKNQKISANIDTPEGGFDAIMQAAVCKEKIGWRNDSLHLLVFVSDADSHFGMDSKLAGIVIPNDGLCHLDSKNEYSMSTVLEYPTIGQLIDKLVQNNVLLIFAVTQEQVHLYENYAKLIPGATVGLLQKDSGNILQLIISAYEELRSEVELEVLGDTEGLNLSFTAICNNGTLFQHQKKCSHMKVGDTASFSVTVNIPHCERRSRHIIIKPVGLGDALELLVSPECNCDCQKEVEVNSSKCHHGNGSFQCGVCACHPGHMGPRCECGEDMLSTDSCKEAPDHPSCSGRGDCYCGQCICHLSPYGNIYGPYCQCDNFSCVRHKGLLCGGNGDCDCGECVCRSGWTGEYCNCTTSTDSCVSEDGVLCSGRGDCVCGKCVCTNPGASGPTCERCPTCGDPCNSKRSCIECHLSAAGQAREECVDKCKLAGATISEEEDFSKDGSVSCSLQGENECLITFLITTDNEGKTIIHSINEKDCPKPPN
Method: 5. Solid Phase Receptor Assay (SPRA) for αvβ6 Function
Recombinant human LAP (R&D Systems, 246-LP) diluted to 0.25 μg/mL in TBS+ buffer (25 mM Tris pH 7.4, 137 mM NaCl, 2.7 mM KCl, 1 mM CaCl2, 1 mM MgCl2, 1 mM MnCl2) was added to wells (50 μL/well) of a 96-well half-well transparent microtiter plate (Greiner 675061) and incubated overnight at 4° C. Wells were washed 3 times with 150 μL TBS+, and 150 μL of blocking buffer (TBS+ with 1% bovine serum albumin, Sigma A7906) were added. The plate was incubated for 1 hr at 37° C., and then washed 3× with TBS+ buffer. Recombinant human integrin αvβ6 (R&D Systems, 3817-AV) was diluted to 0.1 μg/mL in TBS+/0.1% bovine serum albumin. Compounds were diluted 1:100 into the integrin solution and then 50 μL added to empty wells of the washed LAP-coated plate according to a standard template with each sample repeated in triplicate. After incubation for two hours at room temperature, the plate was washed 3× with 150 μL of TBS+ buffer. To each well, 50 μL of biotinylated anti-αv antibody (R&D Systems, BAF1219) at 0.5 μg/mL in TBS+/0.1% BSA were added and the plate was covered and incubated for 1 hr at room temperature. After washing the plate 3× with 150 μL of TBS+ buffer, 50 μL of streptavidin-conjugated horseradish peroxidase (R&D Systems, DY998) diluted in TBS+ blocking buffer were added to the wells and the plate incubated for 20 min at room temperature. The plate was washed 3× with TBS+ buffer followed by 50 μL of TMB substrate (Sigma T4444) added to each well and the plate incubated for 20 min at room temperature. Plates were read by colorimetric detection at 650 nm wavelength using a Tecan Safire II plate reader. Concentration-response curves were constructed by non-linear regression (best fit) analysis, and IC50 values were calculated for each compound.

Recombinant human integrin αvβ8, sequence (P06756 31-992): as the sequence (P06756 31-992) above
Recombinant human integrin αvβ8, sequence (P26012 43-684): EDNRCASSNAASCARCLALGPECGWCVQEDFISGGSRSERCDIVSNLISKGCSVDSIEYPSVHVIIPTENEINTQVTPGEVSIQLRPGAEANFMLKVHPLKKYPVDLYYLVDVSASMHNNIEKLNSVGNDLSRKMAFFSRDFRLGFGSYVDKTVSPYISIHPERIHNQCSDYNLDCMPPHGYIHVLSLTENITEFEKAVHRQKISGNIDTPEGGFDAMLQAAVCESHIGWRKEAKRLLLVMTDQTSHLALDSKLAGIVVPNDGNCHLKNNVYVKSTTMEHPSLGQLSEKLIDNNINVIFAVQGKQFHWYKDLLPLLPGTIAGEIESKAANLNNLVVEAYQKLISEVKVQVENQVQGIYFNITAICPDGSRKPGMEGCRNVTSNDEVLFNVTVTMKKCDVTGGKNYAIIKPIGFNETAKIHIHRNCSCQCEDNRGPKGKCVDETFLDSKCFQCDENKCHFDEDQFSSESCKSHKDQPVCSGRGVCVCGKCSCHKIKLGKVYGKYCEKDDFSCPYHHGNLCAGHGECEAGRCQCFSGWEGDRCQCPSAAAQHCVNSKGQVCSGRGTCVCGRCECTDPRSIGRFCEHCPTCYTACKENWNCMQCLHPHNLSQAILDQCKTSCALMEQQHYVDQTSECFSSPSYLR

| SMILES | IC50 [1] | IC50 [2] | IC50 [3] |
| --- | --- | --- | --- |
| O=C(O)C[C@H](NC(=O)CNC(=O)c1cc(O)cc(NC2=NCC(O)CN2)c1)c1cc(Cl)cc(OC(F)(F)F)c1 (stereo partly drawn) [Example 16, (3S)-3-[3-chloro-5-(trifluoromethoxy)phenyl)-3-(2-(3-hydroxy-5-((5-hydroxy-1,4,5,6-tetrahydropyrimidin-2-yl)amino)benzamido)acetamido)propanoic acid] | 0.3 ± 0.1 nM | 3 ± 2 nM | 0.5 nM |
| O=C(O)C[C@H](NC(=O)CNC(=O)c1cc(O)cc(NC2=NCC(O)CN2)c1)c1cc(Br)cc(OC(F)(F)F)c1 (stereo partly drawn) [Example 17, (3S)-3-(3-bromo-5-(trifluoromethoxy)phenyl)-3-(2-(3-hydroxy-5-((5-hydroxy-1,4,5,6-tetrahydropyrimidin-2-yl)amino)benzamido)acetamido)propanoic acid] | 0.3 ± 0.1 nM | 4 ± 2 nM | 0.7 nM |
| O=C(O)C[C@H](NC(=O)CNC(=O)c1cc(O)cc(NC2=NCC(O)CN2)c1)c1cc(Cl)cc(Br)c1O (stereo partly drawn) [Example C1, reference compound] | 3 ± 2 nM | 17 ± 2 nM | 2 ± 1 nM |
| O=C(O)C[C@H](NC(=O)CNC(=O)c1cc(O)cc(NC2=NCC(O)CN2)c1)c1ccccc1 (stereo partly drawn) [Example C2, reference compound] | 5 nM | 5 nM | > 1000 nM |
| O=C(O)CC(NC(=O)CNC(=O)c1cc(O)cc(NC2=NCC(O)CN2)c1)c1cc(Cl)cc(Cl)c1O (stereo not drawn) [Example C3, reference compound] | 2 nM | 7 nM | 1 nM |
| Cc1cc(C)cc(C(CC(=O)O)NC(=O)CNC(=O)c2cccc(NC(=N)N)c2)c1 (stereo not drawn) [Example C4, reference compound] | 6 nM | 10 nM | 2 nM |
| N=C(N)Nc1cccc(C(=O)NCC(=O)NC(CC(=O)O)c2ccccc2)c1 (stereo not drawn) [Example C5, reference compound] | 66 nM | 17 ± 5 nM | 17 ± 2 nM |
| Cc1ccc(O)c(C(CC(=O)O)NC(=O)CNC(=O)c2cc(O)cc(NC3=NCC(O)CN3)c2)c1 (stereo not drawn) [Example C6, reference compound] | 9 ± 6 nM | 8 ± 6 nM | 1 nM |
| O=C(O)CC(NC(=O)CNC(=O)c1cc(O)cc(NC2=NCC(O)CN2)c1)c1cc(Br)cc(Br)c1O (stereo not drawn) [Example C7, reference compound] | 7 nM | 101 nM | 12 nM |
| Cc1ccc(O)c(C(CC(=O)O)NC(=O)CNC(=O)c2cccc(NC(=N)N)c2)c1 (stereo not drawn) [Example C8, reference compound] | 18 nM | 13 nM | 2 nM |
| N=C(N)Nc1cccc(C(=O)NCC(=O)NC(CC(=O)O)c2cc(F)cc(C(F)(F)F)c2)c1 (stereo not drawn) [Example C9, reference compound] | 6 ± 3 nM | 5 ± 2 nM | 1 nM |
| Cc1cc(Cl)cc([C@@H](CC(=O)O)NC(=O)CNC(=O)c2cc(O)cc(NC3=NCC(O)CN3)c2)c1O (stereo partly drawn) [Example C10, reference compound] | 5 nM | 14 ± 8 nM | 3 nM |
| Cc1cc(Cl)cc([C@@H](CC(=O)O)NC(=O)CNC(=O)c2cccc(NC3=NCCN3)c2)c1O [Example C11, reference compound] | 11 nM | 16 ± 4 nM | 4 nM |
